Values after ≈ are worked out from the molar mass of the structure shown.
Tests used:
[1] = system: Clostridium perfringens (MET^R) MMX 3521; experiment: microbe, parasite or virus in culture; assay type: cell-based
[2] = system: Prevotella bivia MMX 3450; experiment: MIC, anaerobic agar dilution (CLSI); assay type: cell-based; conditions: MMX3450, 35° C., 42-48 hours
[3] = system: Bacteroides fragilis (QC) ATCC 25285; experiment: MIC, anaerobic agar dilution (CLSI); assay type: cell-based; conditions: ATCC25285, 35° C., 42-48 hours
[4] = system: Actinomyces naeslundii ATCC 12104; experiment: MIC, anaerobic agar dilution (CLSI); assay type: cell-based; conditions: ATCC12104, 35° C., 42-48 hours
Gardnerella = experiment: MIC, agar dilution, Gardnerella; assay type: cell-based; conditions: Gardnerella as major BV bacteria
[5] = system: Gardnerella vaginalis ATCC 49145; experiment: MIC, anaerobic agar dilution (CLSI); assay type: cell-based; conditions: ATCC49145, 35° C., 42-48 hours
[6] = system: Bacteroides uniformis MMX 1277; experiment: MIC, anaerobic agar dilution (CLSI); assay type: cell-based; conditions: Bacteroides uniformis, MMX1277
[7] = system: Bacteroides fragilis (QC) ATCC 25285; conditions: range printed in parentheses; cited from earlier work
[8] = system: Bacteroides vulgatus MMX 8348; experiment: MIC, anaerobic agar dilution (CLSI); assay type: cell-based; conditions: Phocaeicola vulgatus, MMX8348, 35° C., 42-48 hours
[9] = system: Treponema denticola ATCC 35405; experiment: MIC, anaerobic agar dilution (CLSI); assay type: cell-based; conditions: ATCC35405, 35° C., 42-48 hours
[10] = system: Eubacterium (rectale) ATCC 33656; experiment: MIC, anaerobic agar dilution (CLSI); assay type: cell-based; conditions: Agathobacter rectalis, ATCC33656, 35° C., 42-48 hours
[11] = system: Prevotella disiens MMX 3457; experiment: MIC, anaerobic agar dilution (CLSI); assay type: cell-based; conditions: MMX3457, 35° C., 42-48 hours
[12] = system: Peptostreptococcus anaerobius ATCC 27337; experiment: MIC, anaerobic agar dilution (CLSI); assay type: cell-based; conditions: ATCC27337, 35° C., 42-48 hours
Atopobium vaginae BAA-55 = experiment: MIC, anaerobic agar dilution (CLSI); assay type: cell-based; conditions: Fannyhessea vaginae, BAA55
[13] = system: Prevotella bivia (MET^R) MMX 3454; experiment: MIC, anaerobic agar dilution (CLSI); assay type: cell-based; conditions: 35° C., 42-48 hours
[14] = system: Veionella parvula ATCC 17745; experiment: MIC, anaerobic agar dilution (CLSI); assay type: cell-based; conditions: 35° C., 42-48 hours
[15] = system: Bacteroides ovatus (MET^R) MMX 3504; experiment: MIC, anaerobic agar dilution (CLSI); assay type: cell-based; conditions: 35° C., 42-48 hours
[16] = system: Lactobacillus crispatus ATCC 33820; experiment: MIC, anaerobic agar dilution (CLSI); assay type: cell-based; conditions: Lactobacillus crispatus, ATCC33820
[17] = system: Mobiluncus (mulieris) ATCC 35243; experiment: MIC, anaerobic agar dilution (CLSI); assay type: cell-based; conditions: ATCC35243, 35° C., 42-48 hours
[18] = system: Peptococcus (niger) ATCC 27731; experiment: MIC, anaerobic agar dilution (CLSI); assay type: cell-based; conditions: ATCC27731, 35° C., 42-48 hours
[19] = system: Fusobacterium nucleatum ATCC 25586; experiment: MIC, anaerobic agar dilution (CLSI); assay type: cell-based; conditions: ATCC25586, 35° C., 42-48 hours
[20] = system: Bacteroides fragilis (MET^R) MMX 3387; experiment: MIC, anaerobic agar dilution (CLSI); assay type: cell-based; conditions: Bacteroides fragilis
[21] = system: Prevotella bivia ATCC 29303; experiment: MIC, anaerobic agar dilution (CLSI); assay type: cell-based; conditions: ATCC29303, 35° C., 42-48 hours
[22] = system: Prevotella asaccharolytica (MET^R) MMX 3552; experiment: MIC, anaerobic agar dilution (CLSI); assay type: cell-based; conditions: 35° C., 42-48 hours
[23] = system: Mobiluncus (curtisii subsp. curtisii) ATCC 35241; experiment: MIC, anaerobic agar dilution (CLSI); assay type: cell-based; conditions: ATCC35241, 35° C., 42-48 hours
[24] = system: Lactobacillus gasseri ATCC 33323; experiment: MIC, anaerobic agar dilution (CLSI); assay type: cell-based; conditions: Lactobacillus gasseri, ATCC33323
[25] = system: Peptostreptococcus (magnus) ATCC 14956; experiment: MIC, anaerobic agar dilution (CLSI); assay type: cell-based; conditions: Finegoldia magna, ATCC14956, 35° C., 42-48 hours
[26] = system: Anaerococcus (Anaerococcus(prevotii)) ATCC 9321; experiment: MIC, anaerobic agar dilution (CLSI); assay type: cell-based; conditions: 35° C., 42-48 hours
[27] = system: Prevotella disiens MMX 3446; experiment: MIC, anaerobic agar dilution (CLSI); assay type: cell-based; conditions: MMX3446, 35° C., 42-48 hours
[28] = system: Prevotella intermedia ATCC 25611; experiment: MIC, anaerobic agar dilution (CLSI); assay type: cell-based; conditions: ATCC25611, 35° C., 42-48 hours
Bacterial Vaginosis (BV) = conditions: within 3 months; cited from earlier work
[29] = system: Lactobacillus jensenii ATCC 25258; experiment: MIC, anaerobic agar dilution (CLSI); assay type: cell-based; conditions: Lactobacillus jensenii, ATCC25258
[30] = system: Peptoniphilus asaccharolyticus ATCC 29743; experiment: MIC, anaerobic agar dilution (CLSI); assay type: cell-based; conditions: ATCC29743, 35° C., 42-48 hours
[31] = system: Bifidobacterium (breve) ATCC 15698; experiment: MIC, anaerobic agar dilution (CLSI); assay type: cell-based; conditions: ATCC15698, 35° C., 42-48 hours
[32] = system: Fusobacterium nucleatum ATCC 10953; experiment: MIC, anaerobic agar dilution (CLSI); assay type: cell-based; conditions: ATCC10953, 35° C., 42-48 hours
[33] = system: Bacteroides thetaiotaomicron (MET^R) MMX 3409; experiment: microbe, parasite or virus in culture; assay type: cell-based; conditions: Bacteroides thetaiotaomicron
[34] = system: Bacteroides gracilis ATCC 33236; experiment: MIC, anaerobic agar dilution (CLSI); assay type: cell-based; conditions: Campylobacter gracilis, ATCC33236
[35] = system: Clostridium sporogenes ATCC 19404; experiment: MIC, anaerobic agar dilution (CLSI); assay type: cell-based; conditions: ATCC19404, 35° C., 42-48 hours
[36] = system: Gardnerella vaginalis ATCC 14018; experiment: MIC, anaerobic agar dilution (CLSI); assay type: cell-based; conditions: ATCC14018, 35° C., 42-48 hours
[37] = system: Bifidobacterium longum ATCC 15707; experiment: MIC, anaerobic agar dilution (CLSI); assay type: cell-based; conditions: ATCC15707, 35° C., 42-48 hours
[38] = system: Bacteroides vulgatus (MET^R) MMX 3490; experiment: MIC, anaerobic agar dilution (CLSI); assay type: cell-based; conditions: Phocaeicola vulgatus

Structure (SMILES): Cc1ncc([N+](=O)[O-])n1CCO [Metronidazole]
- MIC [1]: > 256 µg/mL
- MIC [2]: 1 µg/mL (≈ 5.84 µM)
- MIC [3]: 1 µg/mL (≈ 5.84 µM)
- MIC [4]: 256 µg/mL (≈ 1500 µM)
- MIC (Gardnerella): 4 µg/mL (≈ 23.4 µM)
- MIC [5]: 4 µg/mL (≈ 23.4 µM)
- MIC [6]: > 256 µg/mL
- MIC range in parentheses (QC strain reference range) [7]: 0.25 to 1 µg/mL
- MIC [8]: 1 µg/mL (≈ 5.84 µM)
- MIC [9]: 0.5 µg/mL (≈ 2.92 µM)
- MIC [10]: 0.5 µg/mL (≈ 2.92 µM)
- MIC [11]: 0.5 µg/mL (≈ 2.92 µM)
- MIC [12]: 0.25 µg/mL (≈ 1.46 µM)
- MIC (Atopobium vaginae BAA-55): 128 µg/mL (≈ 748 µM)
- MIC [13]: 0.5 µg/mL (≈ 2.92 µM)
- MIC [14]: 2 µg/mL (≈ 11.7 µM)
- MIC [15]: 2 µg/mL (≈ 11.7 µM)
- MIC [16]: > 256 µg/mL
- MIC [17]: 0.5 µg/mL (≈ 2.92 µM)
- MIC [18]: 0.5 µg/mL (≈ 2.92 µM)
- MIC [19]: 2 µg/mL (≈ 11.7 µM)
- MIC [20]: > 256 µg/mL
- MIC [21]: 1 µg/mL (≈ 5.84 µM)
- MIC [22]: 1 µg/mL (≈ 5.84 µM)
- MIC [23]: 2 µg/mL (≈ 11.7 µM)
- MIC [24]: > 256 µg/mL
- MIC [25]: 1 µg/mL (≈ 5.84 µM)
- MIC [26]: 2 µg/mL (≈ 11.7 µM)
- MIC [27]: 0.5 µg/mL (≈ 2.92 µM)
- MIC [28]: 1 µg/mL (≈ 5.84 µM)
- recurrence rate (Bacterial Vaginosis (BV)): up to 58%
- MIC [29]: > 256 µg/mL
- MIC [30]: 0.5 µg/mL (≈ 2.92 µM)
- MIC [31]: 8 µg/mL (≈ 46.7 µM)
- MIC [32]: 0.06 µg/mL (≈ 0.351 µM)
- MIC [33]: 2 µg/mL (≈ 11.7 µM)
- MIC [34]: > 256 µg/mL
- MIC [35]: 0.06 µg/mL (≈ 0.351 µM)
- MIC [36]: 4 µg/mL (≈ 23.4 µM)
- MIC [37]: 8 µg/mL (≈ 46.7 µM)
- MIC [38]: 128 µg/mL (≈ 748 µM)
